# Source: ChEMBL document CHEMBL1138487, “Tacripyrines, the first tacrine-dihydropyridine hybrids, as multitarget-directed ligands for the treatment of Alzheimer's disease” (J Med Chem, 2009)
# How the values were obtained:
# Acetylcholinesterase [1] = target: T1, Acetylcholinesterase (Homo sapiens, UniProt P22303)
# Description: Inhibition of human serum AChE by Ellman's method
# Acetylcholinesterase [2] = target: Acetylcholinesterase (Electrophorus electricus, UniProt O42275)
# Description: Inhibition of electric eel AChE by Rappaport method
# Cholinesterase = Cholinesterase (Homo sapiens, UniProt P06276)
# Description: Inhibition of human serum BChE by Ellman's method
# in vitro = conditions: pig, PAMPA
# Description: Permeability across porcine brain lipid coated polyvinylidene fluoride membrane by PAMPA
# [3] = Inhibition of amyloid beta (1-42) self-aggregation at 1:1 drug to amyloid beta (1 to 42) ratio after 24 hrs by thioflavin T fluorescence method; conditions: concentration not given here
# Acetylcholinesterase [4] = target: T1, Acetylcholinesterase; conditions: 100 uM
# Description: Inhibition of human AChE-induced amyloid beta (1-40) aggregation at 100 uM after 24 hrs by thioflavin T fluorescence method
# Chain of Acetylcholinesterase (Electrophorus electricus, UniProt O42275) (O42275 whole entry): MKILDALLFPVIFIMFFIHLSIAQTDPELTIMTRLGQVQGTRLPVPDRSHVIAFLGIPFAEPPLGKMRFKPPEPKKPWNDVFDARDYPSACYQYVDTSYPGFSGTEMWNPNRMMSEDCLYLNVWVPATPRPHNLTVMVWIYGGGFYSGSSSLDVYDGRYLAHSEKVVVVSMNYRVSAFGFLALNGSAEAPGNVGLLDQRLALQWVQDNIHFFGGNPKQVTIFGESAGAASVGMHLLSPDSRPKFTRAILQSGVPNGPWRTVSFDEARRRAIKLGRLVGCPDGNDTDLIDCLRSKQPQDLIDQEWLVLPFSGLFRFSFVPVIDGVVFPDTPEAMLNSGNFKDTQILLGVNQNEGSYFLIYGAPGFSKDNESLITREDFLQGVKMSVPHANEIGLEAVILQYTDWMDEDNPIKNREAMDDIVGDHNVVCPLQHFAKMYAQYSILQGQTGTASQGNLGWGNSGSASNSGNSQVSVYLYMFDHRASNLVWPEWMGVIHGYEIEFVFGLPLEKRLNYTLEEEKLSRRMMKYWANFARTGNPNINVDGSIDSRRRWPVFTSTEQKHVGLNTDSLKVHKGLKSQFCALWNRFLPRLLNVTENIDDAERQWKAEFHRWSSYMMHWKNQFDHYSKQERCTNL
# T1 sequence (P22303 whole entry): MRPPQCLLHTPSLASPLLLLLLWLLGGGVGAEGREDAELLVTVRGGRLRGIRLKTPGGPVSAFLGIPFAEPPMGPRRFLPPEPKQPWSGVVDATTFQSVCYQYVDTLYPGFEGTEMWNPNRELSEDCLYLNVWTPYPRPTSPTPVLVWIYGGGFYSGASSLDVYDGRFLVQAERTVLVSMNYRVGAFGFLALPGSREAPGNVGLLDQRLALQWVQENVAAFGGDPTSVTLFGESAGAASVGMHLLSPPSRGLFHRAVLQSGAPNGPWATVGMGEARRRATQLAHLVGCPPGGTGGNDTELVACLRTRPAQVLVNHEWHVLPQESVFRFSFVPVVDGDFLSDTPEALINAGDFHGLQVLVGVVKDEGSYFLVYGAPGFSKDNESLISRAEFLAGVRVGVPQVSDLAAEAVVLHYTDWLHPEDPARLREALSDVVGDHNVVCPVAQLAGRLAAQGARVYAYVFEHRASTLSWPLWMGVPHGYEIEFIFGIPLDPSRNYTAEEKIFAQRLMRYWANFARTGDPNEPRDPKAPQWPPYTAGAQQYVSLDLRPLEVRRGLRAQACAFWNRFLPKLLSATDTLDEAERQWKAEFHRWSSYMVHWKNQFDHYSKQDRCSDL
# Chain of Cholinesterase (P06276 whole entry): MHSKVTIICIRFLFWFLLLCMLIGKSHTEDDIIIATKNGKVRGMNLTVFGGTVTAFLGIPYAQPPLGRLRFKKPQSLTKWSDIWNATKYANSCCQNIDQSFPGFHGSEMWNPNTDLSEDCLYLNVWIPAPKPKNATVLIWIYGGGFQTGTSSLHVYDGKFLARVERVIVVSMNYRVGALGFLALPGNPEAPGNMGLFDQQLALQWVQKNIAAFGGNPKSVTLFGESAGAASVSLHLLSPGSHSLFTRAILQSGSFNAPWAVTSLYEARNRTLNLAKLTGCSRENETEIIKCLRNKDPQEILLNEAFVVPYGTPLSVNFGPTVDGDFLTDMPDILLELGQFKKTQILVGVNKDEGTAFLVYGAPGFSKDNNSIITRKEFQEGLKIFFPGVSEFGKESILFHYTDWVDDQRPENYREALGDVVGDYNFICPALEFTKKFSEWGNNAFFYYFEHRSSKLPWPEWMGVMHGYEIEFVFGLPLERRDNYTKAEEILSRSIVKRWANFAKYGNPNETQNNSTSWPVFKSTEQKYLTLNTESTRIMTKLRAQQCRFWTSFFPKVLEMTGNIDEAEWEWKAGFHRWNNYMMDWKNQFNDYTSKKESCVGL
SMILES,IC50 (Acetylcholinesterase [1]) [µM],IC50 (Acetylcholinesterase [2]) [µM],IC50 (Cholinesterase) [µM],Papp (in vitro) [nm/s],also measured
CCOC(=O)C1=C(C)Nc2nc3c(c(N)c2C1c1ccncc1)CCCC3 (stereo unspecified),0.223,0.22,> 100,–,–
CC(=O)[C@H]1CC[C@H]2[C@@H]3CCC4=CC(=O)CC[C@]4(C)[C@H]3CC[C@]12C [PROGESTERONE],–,–,–,66,–
CCn1cc(C(=O)O)c(=O)c2cc(F)c(N3CCNCC3)nc21 [ENOXACIN],–,–,–,6,–
CN(C)CCCN1c2ccccc2Sc2ccccc21 [PROMAZINE],–,–,–,77,–
CCOC(=O)C1=C(C)Nc2nc3c(c(N)c2C1c1cccnc1)CCCC3 (stereo unspecified),0.158,0.047,> 100,–,–
COc1ccc(CCN2CCC(Nc3nc4ccccc4n3Cc3ccc(F)cc3)CC2)cc1 [ASTEMIZOLE],–,–,–,61,–
CCOC(=O)C1=C(C)Nc2nc3c(c(N)c2C1c1ccc(-c2ccccc2)cc1)CCCC3 (stereo unspecified),0.071,0.09,> 100,–,–
CCOC(=O)C1=C(C)Nc2nc3c(c(N)c2C1c1ccc(OC)c(OC)c1)CCCC3 (stereo unspecified),0.045,0.103,> 100,–,–
C[C@]12CCC(=O)C=C1CC[C@@H]1[C@@H]2[C@@H](O)C[C@]2(C=O)[C@@H](C(=O)CO)CC[C@@H]12 [ALDOSTERONE],–,–,–,6,–
CCOC(=O)C1=C(C)Nc2nc3c(c(N)c2C1c1ccc(OC)cc1)CCCC3 (stereo unspecified),–,–,–,–,inhibition [3]: 34.9%; inhibition (Acetylcholinesterase [4]): 30.7%
CCn1cc(C(=O)O)c(=O)c2cc(F)c(N3CCNC(C)C3)c(F)c21 (stereo unspecified) [LOMEFLOXACIN],–,–,–,5,–
CN1C(C(=O)Nc2ccccn2)=C(O)c2ccccc2S1(=O)=O [PIROXICAM],–,–,–,4,–
